Reference: US20190119298A1, “FUSED 3-PHENYLTETRAMIC ACID DERIVATIVES HAVING HERBICIDAL ACTION” (Bayer CropScience Aktiengesellschaft, priority 2016, published 2019)

Tests used:
Format in all cases: in vivo
Avena fatua [1] = assay: Pre-emergence herbicidal effect; conditions: 320 g/ha, scored visually after 3 weeks vs untreated controls, 100% = plants have died
How it was run: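 Weed and crop seeds sown in sandy loam were treated pre-emergence on the soil surface with WP or EC formulations at a water rate of 600 to 800 L/ha plus 0.2% wetting agent. Plants grown in a greenhouse; damage scored visually after 3 weeks as percent activity relative to untreated controls (100% = dead).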

Setaria viridis [2] = assay: Post-emergence herbicidal effect; conditions: one-leaf stage, 320 g/ha, assessed visually after about 3 weeks, 100% = plants have died
How it was run: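 Greenhouse plants grown in sandy loam were sprayed at the one-leaf stage, 2-3 weeks after sowing. Compounds were applied as WP or EC formulations in 600-800 L/ha water plus 0.2% wetting agent. About 3 weeks later, damage was scored visually against untreated controls (0% = like control, 100% = dead plants).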

Echinochloa crus-galli [3] = assay: Pre-emergence herbicidal effect; conditions: 320 g/ha, scored visually after 3 weeks vs untreated controls, 100% = plants have died
How it was run: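 Wettable powder or emulsion concentrate sprayed onto soil covering freshly sown seeds in sandy loam, 600 to 800 L/ha water with 0.2% wetting agent. Pots kept in greenhouse. Damage scored visually after 3 weeks against untreated controls, 0-100% activity.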

Alopecurus myosuroides [4] = assay: Pre-emergence herbicidal effect; conditions: 320 g/ha, scored visually after 3 weeks vs untreated controls, 100% = plants have died
How it was run: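 Seeds sown in sandy loam and covered; WP- or EC-formulated compounds sprayed onto covering soil at 600–800 L/ha water with 0.2% wetting agent. Greenhouse-grown; damage scored visually after 3 weeks versus untreated controls (100% = plants died, 0% = like control).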

Avena fatua [5] = assay: Post-emergence herbicidal effect; conditions: one-leaf stage, 320 g/ha, assessed visually after about 3 weeks, 100% = plants have died
Description: (§1) AVEFA: Avena fatua Seeds of monocotyledonous and dicotyledonous weed and crop plants are laid out in sandy loam soil in wood-fibre pots, covered with soil and cultivated in a greenhouse under good growth conditions. 2 to 3 weeks after sowing, the test plants are treated at the one-leaf stage. The compounds of the invention, formulated in the form of wettable powders (WP) or as emulsion concentrates (EC), are then sprayed onto the green parts of the plants as aqueous suspension or emulsion at a water application rate equating to 600 to 800 L/ha with addition of 0.2% wetting agent. After the test plants have been left to stand in the greenhouse under optimal growth conditions for about 3 weeks, the action of the preparations is assessed visually in comparison to untreated controls (herbicidal action in percent (%): 100% activity=the plants have died, 0% activity=like control plants).

Setaria viridis [6] = assay: Pre-emergence herbicidal effect; conditions: 320 g/ha, scored visually after 3 weeks vs untreated controls, 100% = plants have died
How it was run: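 Pre-emergence: WP or EC formulations sprayed onto the soil surface over sown seeds in sandy loam at 600–800 L/ha water with 0.2% wetting agent. Plants kept in a greenhouse; damage scored visually after 3 weeks as % activity versus untreated controls (100% = dead).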

Echinochloa crus-galli [7] = assay: Post-emergence herbicidal effect; conditions: one-leaf stage, 320 g/ha, assessed visually after about 3 weeks, 100% = plants have died
How it was run: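 Greenhouse plants in sandy loam were sprayed at the one-leaf stage with WP or EC formulations at 600 to 800 L/ha water with 0.2% wetting agent. After about 3 weeks, damage was scored visually in % against untreated controls (100% = dead).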

Alopecurus myosuroides [8] = assay: Post-emergence herbicidal effect; conditions: one-leaf stage, 320 g/ha, assessed visually after about 3 weeks, 100% = plants have died
Description: as §1, with “ALOMY: Alopecurus myosuroides” for “AVEFA: Avena fatua”

Lolium multiflorum [9] = assay: Pre-emergence herbicidal effect; conditions: 320 g/ha, scored visually after 3 weeks vs untreated controls, 100% = plants have died
How it was run: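 Seeds sown in sandy loam and covered; compounds as WP or EC applied to the soil surface pre-emergence at 600 to 800 L/ha water with 0.2% wetting agent. Greenhouse growth for 3 weeks, then damage scored visually versus untreated controls (100% = plants dead, 0% = like control).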

Lolium multiflorum [10] = assay: Post-emergence herbicidal effect; conditions: one-leaf stage, 320 g/ha, assessed visually after about 3 weeks, 100% = plants have died
Description: as §1, with “LOLMU: Lolium multiflorum” for “AVEFA: Avena fatua”

| SMILES | Pre-emergence action AVEFA (herbicidal activity in percent) (Avena fatua [1]) | Post-emergence effectiveness SETVI (herbicidal action in percent) (Setaria viridis [2]) | Pre-emergence action ECHCG (herbicidal activity in percent) (Echinochloa crus-galli [3]) | Pre-emergence action ALOMY (herbicidal activity in percent) (Alopecurus myosuroides [4]) | Post-emergence effectiveness AVEFA (herbicidal action in percent) (Avena fatua [5]) | Pre-emergence action SETVI (herbicidal activity in percent) (Setaria viridis [6]) | Post-emergence effectiveness ECHCG (herbicidal action in percent) (Echinochloa crus-galli [7]) | Post-emergence effectiveness ALOMY (herbicidal action in percent) (Alopecurus myosuroides [8]) | Pre-emergence action LOLMU (herbicidal activity in percent) (Lolium multiflorum [9]) | Post-emergence effectiveness LOLMU (herbicidal action in percent) (Lolium multiflorum [10]) |
| --- | --- | --- | --- | --- | --- | --- | --- | --- | --- | --- |
| CCc1cc(Cl)cc(OC)c1C1=C(O)C2=CCOCCN2C1=O [Ia-3-4] | 80% | 100% | 90% | 80% | 100% | 100% | 100% | 100% | 90% | 100% |
| CCOC(=O)OC1=C(c2c(CC)cc(C)cc2CC)C(=O)N2CCOCCC12 (stereo not drawn) [Ib-1-2] | 100% | 100% | 100% | 100% | 100% | 100% | 100% | 100% | 100% | 100% |
| CCc1cc(C)cc(CC)c1C1=C(OC(=O)C(C)(C)C)C2CCOCCN2C1=O (stereo not drawn) [Ib-1-3] | 100% | 100% | 100% | 100% | 100% | 100% | 100% | 100% | 100% | 100% |
| CCc1cc(C)cc(CC)c1C1=C(OC(C)=O)C2CCOCCN2C1=O (stereo not drawn) [Ib-1-4] | 100% | 100% | 100% | 100% | 100% | 100% | 100% | 100% | 100% | 100% |
| CCc1cc(C)cc(C)c1C1=C(OC(=O)OC)C2CCOCCN2C1=O (stereo not drawn) [Ib-1-6] | 100% | 100% | 100% | 100% | 100% | 100% | 100% | 100% | 100% | 100% |
| CCOC(=O)OC1=C(c2c(C)cc(C)cc2CC)C(=O)N2CCOCCC12 (stereo not drawn) [Ib-1-7] | 100% | 100% | 100% | 100% | 100% | 100% | 100% | 100% | 100% | 100% |
| CCc1cc(C)cc(C)c1C1=C(OC(=O)C(C)(C)C)C2CCOCCN2C1=O (stereo not drawn) [Ib-1-8] | 100% | 100% | 100% | 100% | 100% | 100% | 100% | 100% | 100% | 100% |
| CCc1cc(C)cc(C)c1C1=C(OC(C)=O)C2CCOCCN2C1=O (stereo not drawn) [Ib-1-9] | 100% | 100% | 100% | 100% | 100% | 100% | 100% | 100% | 100% | 100% |
| CCOC(=O)OC1=C(c2c(C)cc(C)cc2C)C(=O)N2CCOCCC12 (stereo not drawn) [Ib-1-10] | 90% | 100% | 100% | 80% | 100% | 100% | 100% | 100% | 100% | 100% |
